Experimental data: patent US9586905B2, “Benzoazepine derivative and medical use thereof” (SANWA KAGAKU KENKYUSHO CO., LTD., priority 2012, dated 2017)

Legend:
Rat PK test = type: in vivo; settings: iv, male Sprague-Dawley rat, caudal vein administration, 0.5 mg/kg, plasma; for Vd: CLp multiplied by MRT, read-out: Vdss; for clearance: administration amount divided by AUC0-∞, read-out: CLp (converted)
Experimental: A male Sprague-Dawely (Crj: CD(SD)IGS: CHARLES RIVER LABORATORIES JAPAN, INC.) rat was used between 7 to 8 weeks of age as an experimental animal. A rat fasted for one night was used. A test compound was dissolved into DMSO, thereto were added PEG and physical saline to adjust a concentration to be 0.5 mg/mL (20/20/60, v/v/v), and the solution was administered to the caudal vein in a use amount of 0.5 mg/kg. A blood sample was taken with a syringe treated with heparin from the jugular vein with time from 6 to 8 hours after administration and the taken blood was centrifuged to obtain plasma. A plasma drug concentration was measured using LC/MS/MS. For the sample for the LC/MS/MS measurement, a supernatant obtained by adding an internal standard substance and acetonitrile to the plasma and then deproteinization was used. A PK parameter was analyzed by a non-compartment model. A clearance (CLp) was calculated by dividing an administration amount by AUC0-∞. A distribution volume (Vdss) was calculated by multiplying CLp by a mean retention time (MRT).

CYP2C9 = molecular target: T1, CYP2C9 (Homo sapiens, UniProt P11712); assay: Test of inhibition of cytochrome P450 (2C9) enzyme; type: in vitro ADME; settings: human liver microsome, sulfaphenazole 10 μM, test compound 0.21 to 50 μM, 37° C. 10 minutes
T1 construct: human liver microsome with a protein concentration of 0.1 mg protein/mL; from tissue; host or cells: human liver microsomes
Experimental: (5) Test of Inhibition of Cytochrome P450 (2C9) Enzyme
(§1) Using a 96 well plate, sulfaphenazole (10 μM) as a substrate, a test compound (0.21 to 50 μM), human liver microsome with a protein concentration of 0.1 mg protein/mL were added to a 0.1 M phosphoric acid buffer solution (pH=7.4), which contains 1.55 mM NADP^+, 3.3 mM glucose-6-phosphate, 3.3 mM MgCl2 and 0.4 Units/ml of glucose-6-phosphate dehydrogenase to form a reaction solution having a total amount of 5001. The reaction solution was incubated at 37° C. for 10 minutes and 4-hold amount of cold acetonitrile was added thereto to terminate the reaction. Then, the reaction solution was centrifuged (5000 g×10 minutes×4° C.), and the supernatant was collected to measure a production amount of a metabolized product by LC/MS/MS.

CYP3A4 = molecular target: T2, CYP3A4 (Homo sapiens, UniProt P08684); assay: Test of inhibition of cytochrome P450 (3A4) enzyme; type: in vitro ADME; settings: human liver microsome, midazolam 2.5 μM as substrate, test compound 0.21 to 50 μM, 37° C. 10 minutes
T2 construct: human liver microsome with a protein concentration of 0.1 mg protein/mL; from tissue; host or cells: human liver microsomes
Experimental: (4) Test of Inhibition of Cytochrome P450 (3A4) Enzyme
as §1, with “midazolam (2.5” for “sulfaphenazole (10”, “500 μl.” for “5001.”

human V2 receptor = molecular target: T3, human V2 receptor (Homo sapiens, UniProt P30518); assay: cAMP production test in V2 receptor expression cell; type: cell-based; settings: for EC50: human V2 receptor expression cell, 30 minutes at room temperature, HTRF cAMP kit; for Emax: maximum reaction by 8-AVP assumed to be 100%
T3 construct: A DNA fragment containing a human V2 receptor code region; expressed in transfected cells
Experimental: Pharmacological Test (1) Preparation of Human V2 Receptor Expression Cell
A DNA fragment containing a human V2 receptor code region was inserted into an expression vector of a vertebrate cell. The expression vector was genetically introduced into an animal cell to have the human V2 receptor express in the surface of the cell. Since the expression vector could express a neo gene which functions as a G418 resistance marker, it was cultured in a G418-containing medium, thereby selectively obtaining a human V2 receptor stable expression cell.
(2) cAMP Production Test in V2 Receptor Expression Cell
The human V2 receptor expression cell, which was prepared in the above described method, was recovered and resuspended into an incubation buffer (F-12 medium, 20 mM HEPES), and 5 μl of the cell was then divided into a 384-well plate with a density of 15,000 cells/well. 5 μl of a compound solution or an 8-AVP ((Arg^8)-vasopressin) solution, which was diluted with an assay buffer (F-12 medium, 20 mM HEPES, 1 mM IBMX), (total 10 μl/well) was added to each well (final concentration: 15,000 cells/well, 500 μM IBMX, 1% dimethyl sulfoxide). After incubation at room temperature for 30 minutes, a cAMP production amount was measured using a commercially available HTRF cAMP kit (Cisbio Inc.) according to the described protocol. Excel Fit was used in order to find EC50 and Emax values of the test compound.

T3 sequence (P30518 whole entry, the tested form may be a part): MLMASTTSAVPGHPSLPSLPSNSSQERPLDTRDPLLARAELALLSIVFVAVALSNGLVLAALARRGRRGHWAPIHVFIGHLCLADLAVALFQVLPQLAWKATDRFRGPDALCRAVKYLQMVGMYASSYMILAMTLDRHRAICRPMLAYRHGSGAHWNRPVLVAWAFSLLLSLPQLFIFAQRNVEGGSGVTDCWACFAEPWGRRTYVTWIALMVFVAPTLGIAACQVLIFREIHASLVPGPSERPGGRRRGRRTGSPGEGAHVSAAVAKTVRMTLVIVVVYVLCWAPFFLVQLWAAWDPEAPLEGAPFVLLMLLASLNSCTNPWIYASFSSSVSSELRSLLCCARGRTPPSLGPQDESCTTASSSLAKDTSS
T2 sequence (P08684 whole entry): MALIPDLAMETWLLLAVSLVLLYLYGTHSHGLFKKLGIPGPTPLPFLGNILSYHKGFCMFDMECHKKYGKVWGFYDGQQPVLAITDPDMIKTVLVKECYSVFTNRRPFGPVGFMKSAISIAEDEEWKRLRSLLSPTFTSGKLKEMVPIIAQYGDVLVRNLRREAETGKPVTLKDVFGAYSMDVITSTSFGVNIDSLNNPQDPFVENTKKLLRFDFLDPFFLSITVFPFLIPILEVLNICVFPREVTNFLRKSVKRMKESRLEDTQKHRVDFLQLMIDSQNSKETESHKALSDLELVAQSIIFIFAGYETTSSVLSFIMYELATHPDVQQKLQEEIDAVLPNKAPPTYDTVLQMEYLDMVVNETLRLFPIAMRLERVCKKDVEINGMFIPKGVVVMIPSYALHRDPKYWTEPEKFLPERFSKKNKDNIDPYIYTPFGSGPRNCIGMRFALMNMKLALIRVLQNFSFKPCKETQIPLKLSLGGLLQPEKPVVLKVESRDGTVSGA
T1 sequence (P11712 whole entry): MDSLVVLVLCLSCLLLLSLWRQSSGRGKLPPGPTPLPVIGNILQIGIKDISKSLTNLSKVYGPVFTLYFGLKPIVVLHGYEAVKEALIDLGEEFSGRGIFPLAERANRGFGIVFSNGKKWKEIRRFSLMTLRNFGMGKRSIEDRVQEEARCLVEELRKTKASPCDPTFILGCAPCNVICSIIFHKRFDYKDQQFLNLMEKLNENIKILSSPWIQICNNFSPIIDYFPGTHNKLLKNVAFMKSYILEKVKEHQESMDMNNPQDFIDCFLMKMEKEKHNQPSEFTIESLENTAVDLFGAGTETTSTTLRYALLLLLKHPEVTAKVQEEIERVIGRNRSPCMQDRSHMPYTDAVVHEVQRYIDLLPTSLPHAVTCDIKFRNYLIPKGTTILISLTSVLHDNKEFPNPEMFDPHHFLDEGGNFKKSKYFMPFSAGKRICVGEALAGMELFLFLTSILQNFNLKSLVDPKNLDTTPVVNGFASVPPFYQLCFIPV

AUC (Rat PK test) [ng·h/mL]	Vd (Rat PK test) [L/kg]	clearance (Rat PK test) [mL/min/kg]	IC50 (CYP2C9) [nM]	IC50 (CYP3A4) [nM]	EC50 (human V2 receptor) [nM]	Emax (human V2 receptor) [%]	SMILES
176	4.72	47.8					C[C@@H]1CN(C(=O)c2ccc(-n3cccn3)cc2Cl)c2ccccc2CN1C(=O)NCCO [comparative compound 1, N-(2-hydroxyethyl)-(R)-1-(2-chloro-4-pyrazol-1-ylbenzoyl)-3-methyl-1,2,3,5-tetrahydro-benzo[e]-1,4-diazepine-4-carboxamide, reference compound]
			200	400			CC(C)NC(=O)C[C@H]1CCCN(C(=O)c2ccc(N3CCCC3)cc2Cl)c2ccccc21 [comparative compound 2, 2-[(5R)-1-(2-chloro-4-pyrrolidine-1-ylbenzoyl)-2,3,4,5-tetrahydrobenzoazepine-5-yl]-N-isopropylacetoamide, reference compound]
613	1.08	13.6			0.39	101	CC(NC(=O)C1(C)CCN(C(=O)c2ccc(N3CCCC3)cc2C(F)(F)F)c2ccccc2C1)C(N)=O (single isomer, unassigned) [Example 90]

The next lines start with the molecule.

SMILES	AUC (Rat PK test) [ng·h/mL]	Vd (Rat PK test) [L/kg]	clearance (Rat PK test) [mL/min/kg]	IC50 (CYP2C9) [nM]	IC50 (CYP3A4) [nM]	EC50 (human V2 receptor) [nM]	Emax (human V2 receptor) [%]
Cc1ccn(-c2ccc(C(=O)N3CCC(C)(C(=O)NC(C)CO)Cc4ccccc43)c(C(F)(F)F)c2)n1 (single isomer, unassigned) [Example 89]	371	1.23	22.5	40200	> 50000	1.4	102
Cc1ccn(-c2ccc(C(=O)N3CCC(C)(C(=O)NC(C)CO)Cc4ccccc43)c(Cl)c2)n1 (single isomer, unassigned) [Example 72]	430	0.96	19.3	46800	> 50000	2.1	101
